Tests used:
[1] = test system: ERK (extracellular signal-related kinase); conditions: according to a previous study; cited from earlier work
tube formation = assay: Tube formation, Kurabo Angiogenesis kit with CD31 staining and image quantification; format: cell-based, human; conditions: for Area (% increase): Example 5, Table 4; for Length (% increase): Example 5, Table 5; for tube Area % Increase / tube Length % Increase: Table 2
Procedure: Using a Kurabo Angiogenesis kit (KZ-1000, Kurabo Industries Ltd.), tube formation was examined. A blank, vascular endothelial growth factor-A protein (VEGF-A), pVEGF plasmid (plasmid containing a gene encoding vascular endothelial growth factor), and pSPORT1 (a plasmid not containing a gene encoding vascular endothelial growth factor) were used as controls. […]
Culture was carried out at 37° C. in a 5% CO2 incubator. The medium was exchanged on the 4th, 7th and 9th days of culture with a fresh medium containing the same additives.
CD31 (PECAM-1) staining primary antibody (mouse anti-human CD31 antibody) was diluted 4,000-fold with a blocking solution (Dulbecco's phosphate buffer solution (PBS(−)) containing 1% BSA). 0.5 ml of this primary antibody solution was added to each well and incubated for 60 minutes at 37° C. After incubation was finished, each well was washed 3 times with 1 ml blocking solution.
Then, 0.5 ml of a secondary antibody (goat anti-mouse IgG/alkali phosphatase conjugate) solution, diluted 500-fold with the blocking solution, was added to each well and incubated for 60 minutes at 37° C., and each well was washed 3 times with 1 ml distilled water. Separately, 2 tablets of BCIP/NBT were dissolved in 20 ml distilled water and filtered through a filter with a pore size of 0.2 μm, to prepare a substrate solution. 0.5 ml of the prepared BCIP/NBT substrate solution was added to each well and incubated at 37° C. until the tube turned deep violet (usually in 5 to 10 minutes). After incubation was finished, each well was washed 3 times with 1 ml distilled water, followed by removing the washing solution using suction, and the plate was left to air-dry. After drying, each well was observed under a microscope.
Each well was observed under a 40× magnification microscope and a photograph of each well was taken. An enlarged photograph with the scale of 1 mm magnified 40-fold was taken (FIG. 5).
Each of the resulting images was quantified with angiogenesis quantification software (KSW-5000U, Kurabo Industries Ltd.) according to the following method. The area (left in FIG. 6) and length (right in FIG. 6) of tubes formed in each visual field were measured on the scale by computer analysis with various indicators. […]

HAEC = assay: MTS assay of endothelial cell proliferation with added peptide; format: cell-based, human; conditions: MTS, Table 3
Procedure: F2 peptide was synthesized and then contacted in a varying amount with HAEC, and the ability thereof to proliferate the cells was examined by MTS assay. The MTS assay is a modification of the MTT assay, and is a method of measuring living cells based on a reaction of reducing tetrazolium salt (MTS) by living cells in culture, into a colored product formazan. Specifically, this assay is carried out as follows: • HAEC was inoculated onto a 96-well plate at a density of 750 cells/well. • 2 μl/well of each sample was added to 100 μl/well endothelial cell medium (1% FBS, without EGF). 2 μl/well was added every day (until Day 6) (the medium was not exchanged). • 20 μl measurement solution (Cell Titer 96 AQueous One Solution Cell Proliferation Assay (Promega)) was added to each well and mixed with 100 μl of the endothelial cell medium, and the old medium was removed by suction. A mixed suspension of the measurement solution and the cells was put in a volume of 120 μl/well and then incubated for 1 to 5 hours in a CO2 incubator. • The absorbance at 490 nm was measured with a plate reader.
The sample group (8 wells each) is as follows: • NC: Only EBM medium (endothelial cell medium) containing 1% FBS. The other samples were cultured by adding various peptides to this medium containing serum. • VEGF-A: Recombinant VEGF-A (KURABO) was added at a final concentration of 10 ng/ml. • F2-1: F2 peptide was added at a final concentration of 1 ng/ml. • F2-10: F2 peptide was added at a final concentration of 10 ng/ml. • F2-100: F2 peptide was added at a final concentration of 100 ng/ml. • F2-1000: F2 peptide was added at a final concentration of 1000 ng/ml.

[2] = test system: phosphatidyl inositol-3-kinase/Akt (PI3K/Akt); conditions: according to a previous study; cited from earlier work
HEAC endothelial cells = assay: Endothelial cell migration, modified Boyden chamber; format: cell-based, human
Procedure: A polyvinyl pyrrolidone (PVP)-free polycarbonate membrane having […] (Neuro Probe Inc., Gaithersburg, Md.) was coated overnight with 0.1% gelatin and then washed with phosphate buffered saline to remove an excess of the gelatin coating. Then, 28 μl growth factor-free EBM2 medium supplemented with 1% FBS was arranged in a lower chamber, and the membrane was arranged on the lower chamber. […] The Boyden chamber was incubated at 37° C. for 4 hours. After incubation, the membrane was removed and the cells on the upper side of the membrane were removed. The cells on the lower side of the membrane were stained with Diff-Quick (Sysmex, Hyogo Pref., JP). The cells in each of randomly selected 8 visual fields (×100) were counted.

VEGF promoter = VEGF promoter assay (luciferase gene ligated to VEGF promoter); format: cell-based, bovine; conditions: FIG. 3 right graph
c-fos promoter = c-fos promoter assay (c-fos-Luci luciferase); format: cell-based, bovine
Procedure: To further confirm the proliferation ability, an assay using a promoter of proto-oncogene c-fos, which is activated in the earliest stage of cell proliferation, was carried out. The gene c-fos-Luci having luciferase ligated under this promoter, and a candidate gene, were introduced in a weight ratio of 1:1 by lipofection into bovine vascular endothelial cells, and after 24 to 48 hours, the luciferase activity was measured.

[3] = test system: human aortic endothelial cells (HAEC); assay: Cell proliferation assay after gene transfer into HAEC (Cell Titer 96); format: cell-based; conditions: HAEC as host cell; FIG. 4
Procedure: A human heart cDNA library (a plasmid having human heart-derived cDNA ligated to plasmid pSPORT having a CMV promoter; GIBCO BRL) was introduced into E. coli DH12S, and the plasmid prepared from the E. coli. 200 μg of the plasmid was encapsulated in 10000 HAU of the HVJ-E gene-transfer vector (the gene-transfer vector, 3×10^9 particles, prepared in Example 2 in the present invention). As host cells, human aortic endothelial cells HEAC (Sanko Junyaku Co., Ltd.), about 5000 cells, were added together with medium to each well of a 96-well microtiter plate, then cultured overnight and used. 1/100 of the HVJ-E was added to each well containing the host cells, and then left at 37° C. for 30 minutes, followed by exchanging the medium. […]
After2 weeks, a cell proliferation assay was carried out. Using Cell Titer 96 (Promega) as a reagent, the oxidoreduction of mitochondria was measured as a change in the color of the reagent and used as an indicator of cell growth. […]
Each of nine clones having the insert was encapsulated respectively in HVJ-E and subjected to a second screening, and as a result, a gene showing a high proliferation activity was obtained. […] The gene c-fos-Luci having luciferase ligated under this promoter, and a candidate gene, were introduced in a weight ratio of 1:1 by lipofection into bovine vascular endothelial cells, and after 24 to 48 hours, the luciferase activity was measured. […]

[4] = test system: human vascular smooth muscle cell (VSMC); assay: Cell proliferation after gene transfer into VSMC; format: cell-based; conditions: FIG. 4

LL-37 peptide: peptide having antimicrobial activity, angiogenesis activity and artery-forming activity; rich in arginine, α-helix structure [reference compound]
effect on ERK activity [1]: increased rapidly | Area (% increase) (tube formation; 1 μg/ml): 70.1% | Length (% increase) (tube formation; 1 μg/ml): 60.9% | Area (% increase) (tube formation; 10 μg/ml): 43% | Length (% increase) (tube formation; 10 μg/ml): 28% | endothelial proliferation Increase [times] (HAEC; 100 ng/ml): 1.279 times | endothelial proliferation Increase [times] (HAEC; 1 μg/ml): 1.361 times | effect on PI3K/Akt activity [2]: increased rapidly

RSLEGTDRFPFVRLKNSRKLEFKDIKGIKR (CONTROL PEPTIDE) [reference compound]
tube Area % Increase (tube formation; 1 μg/ml): −12% | tube Length % Increase (tube formation; 1 μg/ml): −11% | tube Area % Increase (tube formation; 10 μg/ml): −9% | tube Length % Increase (tube formation; 10 μg/ml): −3% | migration % Increase (HEAC endothelial cells; 1 μg/ml, 4 hours): −10.1% | cell migration activity (in words) (HEAC endothelial cells; F2 0.01 to 1 μg/ml, control peptide 1 μg/ml, VEGF 50 ng/ml, FIG. 10): not observed

p3743: gene clone (plasmid) from a human heart cDNA library; insert is nucleotide sequence No. 2364-3958 in SART-2
activation of the VEGF promoter, compared with VEGF (VEGF promoter): higher activation of the VEGF promoter than by VEGF | area and length of the formed tubes (tube formation; supernatant of HAEC into which the gene had been introduced, FIG. 6): significantly greater | ability to activate the c-fos promoter, compared with VEGF (c-fos promoter; FIG. 3 left graph): higher ability to activate the c-fos promoter than VEGF | luciferase activity (activation of c-fos promoter), compared with HGF (c-fos promoter; candidate gene and c-fos-Luci 1:1 by lipofection, bovine vascular endothelial cells, after 24 to 48 hours, FIG. 2): higher luciferase activity than HGF | proliferation ability in HAEC after gene introduction [3]: higher proliferation ability than HGF | proliferation activity in human vascular smooth muscle cells after gene introduction [4]: same as that of the negative control, GFP

f1: gene fragment, nucleotide sequence No. 2764-3073 in the frame of SART-2, ligated with expression vector pCDNA3.1
activity in c-fos promoter assay of gene fragments in pCDNA3.1 (c-fos promoter; FIG. 8): no activity

Reference: US7807176B2, “Polypeptide promoting vascular endothelial cell growth” (Genomidea, Inc., priority 2004, dated 2010)
